We go through eight molecules from patent publication US8492379B2, “Translocator protein ligands” (The University of Sydney, priority 2007, dated 2013).

What is called Ki is the dissociation constant of the complex between target and ligand, obtained from inhibition or displacement. A lower Ki goes with higher affinity.

Chain of TSPO (P16257 whole entry, looked up): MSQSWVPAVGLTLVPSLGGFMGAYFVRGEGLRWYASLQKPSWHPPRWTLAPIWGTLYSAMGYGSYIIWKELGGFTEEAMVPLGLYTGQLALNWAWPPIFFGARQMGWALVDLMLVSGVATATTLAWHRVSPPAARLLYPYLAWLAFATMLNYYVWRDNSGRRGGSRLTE
Chain of TSPO in microglia (P16257 whole entry): as the sequence (P16257 whole entry, looked up) above

The target in one assay is TSPO (Rattus norvegicus (Rat), UniProt P16257). Nature of the assay: In vitro binding affinity, 3H-PK11195 displacement in kidney mitochondria. The following applies: 0.6 nM 3H-PK11195, mitochondria from kidneys of male Wistar rats, 90 min at 4° C. As to the method:
3H-PK11195 (specific activity 322 GBq/mmol) and 3H-Ro 15-1788 (specific activity 311 GBq/mmol) were purchased from Dupont-New England Nuclear. For binding studies, mitochondria were prepared as described in Trapani G., et al. J Med Chem. 1997; 40:3109-3118, with minor modifications as described here, from the kidneys of male Wistar rats killed by cervical dislocation. The kidneys were homogenized in 20 volumes of ice-cold 50 mM Tris-HCl (pH 7.4), 0.32 M sucrose, and 1 mM ethylenediaminetetraacetic acid (buffer A) containing protease inhibitors (benzamidine at […], bacitracin at […], and soybean trypsin inhibitor at […]) with a Teflon (DuPont) pestle in a glass homogenizer and centrifuged at 600 g for 10 min at 4° C. The resulting supernatant was centrifuged at 10,000 g for 10 min at 4° C. The pellet was suspended in 20 volumes of ice cold buffer A and centrifuged at 10,000 g for 10 min at 4° C. The crude mitochondrial pellet was frozen at −20° C. until the time of the assay or incubated with 0.6 nM 3H-PK11195 in 50 mM Tris-HCl (pH 7.4) (buffer B) with a range of concentrations of the tested compounds (0.1 nM-10 mM) in a total volume of 0.5 mL for 90 min at 4° C. The incubation was terminated by dilution to 5 mL with icecold buffer B; this step was followed immediately by rapid filtration through glass fiber Whatman GF/C filters. The filters were washed (2.5 mL) with buffer B, and the amount of radioactivity retained on the filters was determined with a Packard 1600 TR liquid scintillation counter at 66% efficiency. Nonspecific binding was estimated for each sample in the presence of unlabeled 1 mM PK11195. The 50% inhibitory concentrations were determined, and the dissociation constant (Ki) values were derived according to a previously derived equation (Cheng Y., et al. Biochem Pharmacol. 1973; 22:3099-3108). The protein concentration was estimated by the method of Lowry et al. (J Biol Chem. 1951; 193:265-275) with bovine serum albumin (Sigma-Aldrich) as the standard.
Consider `CCN(CC)C(=O)Cc1c(-c2ccc(C)cc2)nc2c(C)cc(C)nn12`, for which the Ki came out at 0.46 nM.
In turn, `CCN(CC)C(=O)Cc1c(-c2ccc(Cl)cc2)nc2c(C)cc(C)nn12` registered a Ki of 0.45 nM.
The same measure, in the same setting: in the case of `CCN(CC)C(=O)Cc1c(-c2ccc(Br)cc2)nc2c(C)cc(C)nn12` it was 0.97 nM; in that of `CCN(CC)C(=O)Cc1c(-c2ccc(F)cc2)nc2c(C)cc(C)nn12`, 2.4 nM; in that of `CCN(CC)C(=O)C(Oc1cccnc1-n1cccc1)c1ccc(OC)cc1` (centres unmarked), 4 nM.
The same measure, in the same setting: next, `CCN(CC)C(=O)C(Oc1ccccc1-n1cccc1)c1ccc(OC)cc1` (centres unmarked): 5 nM.
Same read-out and setting: in the case of `CCN(CC)C(=O)C(Oc1ccc(Cl)cc1-n1cccc1)c1ccc(OC)cc1` (centres unmarked) it was 5.7 nM.

Another assay concerns the target TSPO in microglia (Rattus norvegicus (Rat), UniProt P16257).
Assay: not given
The settings on record: quinolinic acid-injected rat striatum; cited from earlier work.
For the molecule `CCC(C)N(C)C(=O)c1cc2ccccc2c(-c2ccccc2Cl)n1` (centres unmarked) [PK 11195], the “effect on microglial activation and neuronal death” value was “reduces microglial activation and neuronal death”.
